Data reported in patent publication US10058097B2, “Methods to increase corn productivity” (Valent BioSciences Corporation, priority 2016, dated 2018).

Assays:
Assay type in all cases: in vivo
corn plants [1] = test: Greenhouse study: growth of corn after V3 spray with GA3 or GB, nine days; settings: non-stressed greenhouse; spray at V3; GA3 120 mg/liter, GB 3000 mg/liter; n = 7
Procedure: (§1) In several of the following examples, corn was grown in greenhouse conditions, which are defined as follows. Seeds of a commercial hybrid variety were sown in Pro-Mix® BX (Pro-Mix is a registered trademark of Premier Horticulture Ltd.) with the addition of Osmocote (14-14-14) and gypsum in three-liter pots. Greenhouses were kept at 25±3° C. under a 16:8 hour photoperiod, with illumination at canopy level of ˜250 μmoles m^−2s^−1. Corn was typically fertigated with Peters 21-5-20+micronutrients, calcium ammonium nitrate and magnesium sulfate. Typical growth rates for corn under these conditions ranged from 4-5 cm/day.
(§2) In most greenhouse studies, spray applications were made. These applications were made in a track sprayer outfitted with a 4001E Teejet® nozzle (Teejet is available from and a registered trademark of Spraying Systems Co., Glendale Heights, Ill., USA) and applied at 40 psi. Although application volumes did vary between some studies, generally, 30 gallons/acre of spray solution was applied. Following spray applications, plants were returned to the greenhouse. Typically, experiments were blocked according to plant size, and a randomized complete block design (RCB) was used.
In a greenhouse study conducted in Long Grove, Ill., corn plants were sprayed at V3 stage with solutions containing a non-ionic surfactant (0.25%, v/v) at 30 gallons of spray solution/acre and growth was followed for nine days.
(§3) Synergy was determined using the following formula, in which a synergy factor is calculated by the Abbott method: % Cexp=A+B−(AB/100), here % Cexp is the expected efficacy and “in which A and B are the increase in growth (or resistance to stress) levels given by the single [plant growth regulators]. If the ratio between the experimentally observed efficacy of the mixture Cobs and the expected efficacy of the mixture is greater than 1, synergistic interactions are present in the mixture” (Gisi, Synergistic Interaction of Fungicides in Mixtures, The American Phytopathological Society, 86:11, 1273-1279, 1996).
Based on a conservative approach, synergy was determined to be present at ratios of ≥1.10. When grown under non-stressed conditions, GA3 growth was synergized by the addition of 3,000 mg/liter glycine betaine (“GB”), with a synergy factor of 1.65 for growth and 1.68 for growth rate while dry weight/plant was not synergistic with a synergy factor of 0.95.

greenhouse-grown maize = test: Greenhouse study: effect of GA3 dose +/- GB on growth, 7 and 14 days; settings: without or with GB 10000 mg/liter
Procedure: as §1, §2, §3
In a separate study, the effect of one rate of GB on various doses of GA3 was studied.

corn plants [2] = test: Chilling stress study (10° C. for five days) after spray with GA3 or GB; settings: chilling stress at 10° C. for five days; GA3 120 mg/liter, GB 3000 mg/liter; n = 7 plants
Procedure: In stress studies, plants were subjected to various stresses. In cold stress studies, after spraying, plants were grown in the greenhouse for an additional 48 hours before being measured and moved to a CMP6050 CONVIRON® chamber kept at 10° C. (Conviron is a registered trademark of Controlled Environments Limited Corporation). Illumination was at ˜225 μMoles, and light:dark conditions were on a 12:12 hour photoperiod. After 120 hours of chilling, plants were removed from the cold, measured, and returned to the greenhouse for 48 hours prior to harvest.
as §3
In a greenhouse and growth room study conducted in Long Grove, Ill., corn plants of a commonly grown hybrid were subjected to the following stress regimen: at two days post-foliar application, plants were moved into a controlled environment chamber, where the temperature was maintained at 10° C. with a 12:12 hour photoperiod for five days. At the end of the chilling period, the corn was moved back to the greenhouse for two days before destructive harvest.

potted corn plants [3] = test: Chronic drought stress greenhouse study, potted corn, 14 days; settings: 20 Percent Volumetric Water Content, 120 mg/liter GA3, 3000 mg/liter GB, n = 5
Procedure: In drought stress studies, corn plants were sprayed at the V4 stage with solutions containing a non-ionic surfactant (0.25%, v/v) at 30 gallons of spray solution/acre and growth was determined by change in height from time of treatment or fresh and dry shoot weight measurements 14 days later.
In greenhouse drought stress studies, corn plants were treated and subsequently watered with an automated irrigation system that maintained the soil moisture in the pots at 45% or 20% volumetric water content (“VWC”). Plants set to 20% after treatment took about 4 days without the automated system adding water to those pots to reach 20% VWC and then the automated system added water as needed to maintain 20% VWC. Total soil moisture capacity was 45% VWC and 20% VWC represented drought stress conditions. This would be considered chronic stress, as a lower level of VWC was maintained throughout the experiment after treatment.

potted corn plants [4] = test: Acute drought stress greenhouse study, potted corn, 7 and 14 days
Procedure: In a separate acute drought stress greenhouse study conducted in Long Grove, Ill., corn plants were sprayed at V4 stage with solutions containing a non-ionic surfactant (0.25%, v/v) at 30 gallons of spray solution/acre and growth was determined by shoot height increase 7 and 14 days later. After treatment corn plants were not watered with the exception of one treatment of control (aqueous surfactant solution) that were watered as needed (well-watered control).

corn = test: Field study Woodstock, IL 2015, height, ear counts and yield
Procedure: A field study was conducted at Woodstock, Ill. Seeds of a central corn belt variety with 103 days to maturity were sown and plants were sprayed at V5 with solutions containing a non-ionic surfactant (0.25%, v/v) at 15 gallons of spray solution/acre. Growth was followed by measuring shoot heights in centimeters 50 plants in each replicate at 7 and 13 days post-spraying. The number of kernels per kernel-row (average kernel number) as well as the number of kernel-rows (average row number) per ear was counted for 50 plants in each replicate 7 days before harvest. The harvest grain yield was corrected to 15% moisture.

corn plants [5] = test: Field study Colby, KS 2015, yield; settings: GA3 120 mg/liter, GB 10000 mg/liter, (S)-ABA 9 mg/liter
Source text: In a field study conducted in Colby, Kans., corn plants were sprayed with solutions containing a non-ionic surfactant (0.25%, v/v) at 15 gallons of spray solution per acre.

[6] = acute drought stressed, 120 ppm GA3, 3000 ppm GB, spray at V4
[7] = field, spray at V5, GA3 120 mg/liter, GB 10000 mg/liter, (S)-ABA 9 mg/liter

Q: What does the source list for `C=C1C[C@]23C[C@@]1(O)CC[C@H]2[C@@]12C=C[C@H](O)[C@@](C)(C(=O)O1)[C@H]2[C@@H]3C(=O)O` [GA3, gibberellic acid]?
A: Dry Weight/Plant (corn plants [1]): 2.92 g; Growth Rate (corn plants [1]): 4.76 cm/day; Growth over 9 days (corn plants [1]): 42.9 cm; Growth Rate, 0-7 day(s) (greenhouse-grown maize; GA3 30 mg/liter): 3.17 cm/day; Growth Rate, 0-14 day(s) (greenhouse-grown maize; GA3 30 mg/liter): 6.82 cm/day; Plant Growth over 7 days (greenhouse-grown maize; GA3 30 mg/liter): 22.2 cm; Plant Growth over 14 days (greenhouse-grown maize; GA3 30 mg/liter): 47.8 cm; Growth Rate, 0-7 day(s) (greenhouse-grown maize; GA3 60 mg/liter): 3.57 cm/day; Growth Rate, 0-14 day(s) (greenhouse-grown maize; GA3 60 mg/liter): 7.24 cm/day; Plant Growth over 7 days (greenhouse-grown maize; GA3 60 mg/liter): 25.0 cm; Plant Growth over 14 days (greenhouse-grown maize; GA3 60 mg/liter): 50.7 cm; Growth Rate, 0-7 day(s) (greenhouse-grown maize; GA3 120 mg/liter): 3.91 cm/day; Growth Rate, 0-14 day(s) (greenhouse-grown maize; GA3 120 mg/liter): 7.35 cm/day; Plant Growth over 7 days (greenhouse-grown maize; GA3 120 mg/liter): 27.3 cm; Plant Growth over 14 days (greenhouse-grown maize; GA3 120 mg/liter): 51.4 cm; Growth Rate, 0-7 day(s) (greenhouse-grown maize; GA3 240 mg/liter): 4.25 cm/day; Growth Rate, 0-14 day(s) (greenhouse-grown maize; GA3 240 mg/liter): 7.94 cm/day; Plant Growth over 7 days (greenhouse-grown maize; GA3 240 mg/liter): 29.8 cm; Plant Growth over 14 days (greenhouse-grown maize; GA3 240 mg/liter): 55.6 cm; Growth Rate (corn plants [2]): 2.38 cm/day; Growth over 9 days (corn plants [2]): 21.43 cm; Leaf Area of L1-L5 (corn plants [2]): 324.24 cm^2; Percent Dry Weight of Drought Stressed Control (potted corn plants [3]): 103.32%; Percent Fresh Weight of Drought Stressed Control (potted corn plants [3]): 106.11%; Shoot Growth 7 days after treatment as Percent Increase as compared to Drought Stressed Control (potted corn plants [4]; [6]): 116.9%; Shoot Growth 14 days after treatment as Percent Increase as compared to Drought Stressed Control (potted corn plants [4]; [6]): 118.7%; increased growth under drought as compared to controls (potted corn plants [4]; at 7 days): 16.9%; increased growth under drought as compared to controls (potted corn plants [4]; at 14 days): 18.7%; Average row number per ear (corn; counted 7 days before harvest): 16.8; Height at 7 days post spray (corn; [7]): 69.6 cm; Height at 13 days post spray (corn; [7]): 88.6 cm; Yield (corn; grain yield corrected to 15% moisture): 222.8 bu/acre; Yield (corn plants [5]): 188.9 bu/acre
